Source: ChEMBL document CHEMBL3352182, “Discovery and Development of LX7101, a Dual LIM-Kinase and ROCK Inhibitor for the Treatment of Glaucoma” (ACS Med Chem Lett, 2015)

Experiments:
[1] = target: T1, LIM domain kinase 2 (Homo sapiens, UniProt P53671); test: Inhibition of human full-length LIMK2 assessed as incorporation of P33 from ATP into biotinylated-cofilin substrate by scintillation counting analysis in presence of 2 uM ATP
[2] = Stability of the compound in 1:1 H2O/MeOH assessed as decomposition measured at 60 degC after 24 hrs by HPLC; type: physicochemical
[3] = target: T2, Rho-associated protein kinase 1 (Homo sapiens, UniProt Q13464); test: Inhibition of human Rock1 assessed as incorporation of P33 from ATP into biotinylated-cofilin substrate by scintillation counting analysis in presence of 2 uM ATP
[4] = tested on: Mus musculus; test: Reduction in dexamethasone-induced ocular hypertensive C57BL/6J-Tyr c-Brd x 129S5/SvEvBrd, F2 generation mouse assessed as intraocular pressure at 5 mg/ml, topical instillation measured after 2 hrs; type: functional, Eye
[5] = target: T1, LIM domain kinase 2; test: Binding affinity to human LIMK2
[6] = target: T3, Rho-associated protein kinase 2 (Homo sapiens, UniProt O75116); test: Binding affinity to human Rock2
[7] = Stability of the compound in aqueous solution formulation at 60 degC after 14 days; type: physicochemical; conditions: read-out: Stability
[8] = target: T3, Rho-associated protein kinase 2; test: Inhibition of human Rock2 assessed as incorporation of P33 from ATP into biotinylated-cofilin substrate by scintillation counting analysis in presence of 2 uM ATP
[9] = target: T3, Rho-associated protein kinase 2; test: Inhibition of human Rock2 assessed as incorporation of P33 from ATP into biotinylated-cofilin substrate by scintillation counting analysis in presence of 200 uM ATP
[10] = target: T2, Rho-associated protein kinase 1; test: Inhibition of human Rock1 assessed as incorporation of P33 from ATP into biotinylated-cofilin substrate by scintillation counting analysis in presence of 200 uM ATP
[11] = target: T1, LIM domain kinase 2; test: Inhibition of human full-length LIMK2 assessed as incorporation of P33 from ATP into biotinylated-cofilin substrate by scintillation counting analysis in presence of 200 uM ATP
[12] = Cmax in rat dosed topically; type: ADME, organism-based; conditions: in vivo, topical or ocular
[13] = target: LIM domain kinase 1 (Homo sapiens, UniProt P53667); test: Inhibition of human LIMK1 assessed as incorporation of P33 from ATP into biotinylated-cofilin substrate by scintillation counting analysis in presence of 2 uM ATP
Sequence of LIM domain kinase 1 (P53667 whole entry, the tested form may be a part): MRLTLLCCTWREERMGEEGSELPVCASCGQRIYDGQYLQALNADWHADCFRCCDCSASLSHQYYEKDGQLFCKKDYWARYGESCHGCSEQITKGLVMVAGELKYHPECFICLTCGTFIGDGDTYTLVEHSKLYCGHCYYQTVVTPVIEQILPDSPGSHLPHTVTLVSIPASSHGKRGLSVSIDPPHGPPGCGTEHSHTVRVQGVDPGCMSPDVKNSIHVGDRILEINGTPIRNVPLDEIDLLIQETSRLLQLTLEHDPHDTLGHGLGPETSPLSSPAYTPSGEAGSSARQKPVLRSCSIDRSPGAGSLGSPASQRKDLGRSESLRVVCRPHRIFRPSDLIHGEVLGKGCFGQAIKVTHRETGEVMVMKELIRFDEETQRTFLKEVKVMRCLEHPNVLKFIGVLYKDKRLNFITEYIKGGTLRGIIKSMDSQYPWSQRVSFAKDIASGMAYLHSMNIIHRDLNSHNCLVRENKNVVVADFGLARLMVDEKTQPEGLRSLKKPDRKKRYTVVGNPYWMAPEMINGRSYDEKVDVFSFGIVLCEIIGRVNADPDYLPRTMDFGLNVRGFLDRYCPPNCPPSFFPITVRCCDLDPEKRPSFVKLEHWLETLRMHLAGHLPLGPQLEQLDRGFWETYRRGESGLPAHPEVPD

T1 sequence (P53671 whole entry, the tested form may be a part): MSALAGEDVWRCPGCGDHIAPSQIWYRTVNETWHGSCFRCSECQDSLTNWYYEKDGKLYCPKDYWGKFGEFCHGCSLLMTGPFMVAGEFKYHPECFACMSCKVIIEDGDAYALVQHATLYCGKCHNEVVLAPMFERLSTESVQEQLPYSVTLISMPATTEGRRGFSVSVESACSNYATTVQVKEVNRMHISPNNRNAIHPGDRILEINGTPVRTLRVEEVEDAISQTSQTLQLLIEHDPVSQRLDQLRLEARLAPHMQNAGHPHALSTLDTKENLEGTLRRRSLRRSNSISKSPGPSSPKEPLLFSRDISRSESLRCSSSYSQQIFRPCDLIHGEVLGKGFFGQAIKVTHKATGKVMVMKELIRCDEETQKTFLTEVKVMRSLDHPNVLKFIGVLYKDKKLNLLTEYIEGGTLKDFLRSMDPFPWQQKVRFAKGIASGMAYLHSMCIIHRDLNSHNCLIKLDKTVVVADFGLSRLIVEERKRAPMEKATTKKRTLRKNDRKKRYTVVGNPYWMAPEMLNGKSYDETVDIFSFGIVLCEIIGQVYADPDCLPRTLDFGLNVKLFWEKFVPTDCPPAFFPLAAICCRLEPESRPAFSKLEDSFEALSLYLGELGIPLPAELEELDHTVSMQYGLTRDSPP
T2 sequence (Q13464 whole entry): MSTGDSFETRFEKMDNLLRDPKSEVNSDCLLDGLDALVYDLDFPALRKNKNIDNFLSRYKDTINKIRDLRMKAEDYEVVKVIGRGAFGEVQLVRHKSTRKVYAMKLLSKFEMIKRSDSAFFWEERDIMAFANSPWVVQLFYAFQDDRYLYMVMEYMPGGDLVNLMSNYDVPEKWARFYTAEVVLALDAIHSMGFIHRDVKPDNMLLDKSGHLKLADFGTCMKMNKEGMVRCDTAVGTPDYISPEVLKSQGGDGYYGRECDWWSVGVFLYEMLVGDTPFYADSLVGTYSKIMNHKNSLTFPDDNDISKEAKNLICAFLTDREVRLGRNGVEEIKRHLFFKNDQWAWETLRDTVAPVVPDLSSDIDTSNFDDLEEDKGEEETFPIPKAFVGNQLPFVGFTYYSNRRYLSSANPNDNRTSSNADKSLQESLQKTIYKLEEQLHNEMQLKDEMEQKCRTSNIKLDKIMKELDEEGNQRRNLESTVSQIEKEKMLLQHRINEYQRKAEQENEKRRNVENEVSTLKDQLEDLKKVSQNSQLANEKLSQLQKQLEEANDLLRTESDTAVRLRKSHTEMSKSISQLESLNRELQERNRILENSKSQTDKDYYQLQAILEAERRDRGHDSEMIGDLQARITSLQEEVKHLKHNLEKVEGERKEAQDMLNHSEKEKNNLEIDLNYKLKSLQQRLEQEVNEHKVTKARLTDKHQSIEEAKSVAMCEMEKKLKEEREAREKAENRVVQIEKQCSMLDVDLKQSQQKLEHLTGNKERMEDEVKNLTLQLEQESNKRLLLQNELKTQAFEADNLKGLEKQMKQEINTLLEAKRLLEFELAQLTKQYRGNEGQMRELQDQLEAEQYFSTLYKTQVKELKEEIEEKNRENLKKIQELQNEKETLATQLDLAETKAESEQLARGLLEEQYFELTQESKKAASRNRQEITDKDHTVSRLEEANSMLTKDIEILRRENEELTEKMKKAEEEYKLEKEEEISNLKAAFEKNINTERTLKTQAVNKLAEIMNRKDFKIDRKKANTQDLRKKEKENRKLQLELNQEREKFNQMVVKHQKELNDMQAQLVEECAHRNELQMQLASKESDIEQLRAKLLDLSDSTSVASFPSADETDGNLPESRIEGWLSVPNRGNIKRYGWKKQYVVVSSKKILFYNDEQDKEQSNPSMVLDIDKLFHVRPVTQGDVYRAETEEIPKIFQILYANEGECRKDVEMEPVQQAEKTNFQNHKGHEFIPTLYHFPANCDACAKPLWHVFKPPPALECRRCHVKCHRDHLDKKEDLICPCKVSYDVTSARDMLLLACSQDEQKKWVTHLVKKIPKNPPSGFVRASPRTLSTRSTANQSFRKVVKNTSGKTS
T3 sequence (O75116 whole entry): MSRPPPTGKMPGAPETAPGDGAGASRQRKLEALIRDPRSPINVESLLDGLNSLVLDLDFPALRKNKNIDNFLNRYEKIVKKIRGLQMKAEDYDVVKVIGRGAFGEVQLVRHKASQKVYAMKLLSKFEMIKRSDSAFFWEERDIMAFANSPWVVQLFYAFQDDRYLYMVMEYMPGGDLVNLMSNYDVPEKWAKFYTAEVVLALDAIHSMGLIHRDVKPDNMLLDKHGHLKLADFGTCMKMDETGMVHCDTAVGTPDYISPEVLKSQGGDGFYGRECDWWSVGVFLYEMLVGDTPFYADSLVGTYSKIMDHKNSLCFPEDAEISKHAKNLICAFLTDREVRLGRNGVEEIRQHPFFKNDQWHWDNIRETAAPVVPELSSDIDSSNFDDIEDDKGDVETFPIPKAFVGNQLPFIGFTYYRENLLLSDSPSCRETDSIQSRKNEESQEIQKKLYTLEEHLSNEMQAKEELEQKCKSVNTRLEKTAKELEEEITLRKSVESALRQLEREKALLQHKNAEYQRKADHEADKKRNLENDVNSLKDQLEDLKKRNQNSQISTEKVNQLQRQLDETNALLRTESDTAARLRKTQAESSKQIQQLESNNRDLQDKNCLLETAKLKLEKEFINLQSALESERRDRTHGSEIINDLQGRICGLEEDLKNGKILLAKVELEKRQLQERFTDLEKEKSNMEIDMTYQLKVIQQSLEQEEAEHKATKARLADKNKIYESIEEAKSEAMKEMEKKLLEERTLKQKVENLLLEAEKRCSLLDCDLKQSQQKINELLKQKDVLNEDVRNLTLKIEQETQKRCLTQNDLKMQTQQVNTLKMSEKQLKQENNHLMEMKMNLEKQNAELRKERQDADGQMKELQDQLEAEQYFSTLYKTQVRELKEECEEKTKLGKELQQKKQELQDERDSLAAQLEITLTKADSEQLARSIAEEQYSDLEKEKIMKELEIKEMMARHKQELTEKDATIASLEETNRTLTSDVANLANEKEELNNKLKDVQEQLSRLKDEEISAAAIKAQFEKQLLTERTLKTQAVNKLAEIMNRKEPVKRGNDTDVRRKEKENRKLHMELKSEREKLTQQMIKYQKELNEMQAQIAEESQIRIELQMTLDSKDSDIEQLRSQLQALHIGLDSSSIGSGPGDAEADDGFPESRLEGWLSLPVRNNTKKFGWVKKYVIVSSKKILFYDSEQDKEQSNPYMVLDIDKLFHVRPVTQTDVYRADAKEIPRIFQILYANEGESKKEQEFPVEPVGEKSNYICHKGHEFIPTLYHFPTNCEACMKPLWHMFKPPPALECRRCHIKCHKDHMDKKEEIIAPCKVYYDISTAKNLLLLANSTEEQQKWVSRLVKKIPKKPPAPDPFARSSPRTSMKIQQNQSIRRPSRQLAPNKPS

Row | Structure (SMILES) | IC50 [1] [nM] | also measured
1 | Cc1c[nH]c2ncnc(N3CC[C@H](C(=O)Nc4cccc(OC(=O)N(C)C)c4)[C@@H](C)C3)c12 (relative stereo) | 210 | –
2 | Cc1c[nH]c2ncnc(N3CCN(C(=O)Nc4ccccc4)[C@@H](C)C3)c12 | 1.2 | Stability [2]: Unstable
3 | Cc1c[nH]c2ncnc(N3CCN(C(=O)Cc4ccccc4)[C@@H](C)C3)c12 | 660 | Stability [2]: Stable
4 | Cc1c[nH]c2ncnc(N3CCC(C(=O)Nc4cccc(OC(=O)N(C)C)c4)(N(C)C)CC3)c12 | 5.1 | –
5 | Cc1c[nH]c2ncnc(N3CCC(O)(C(=O)Nc4cccc(OC(=O)N(C)C)c4)CC3)c12 | 138 | –
6 | Cc1c[nH]c2ncnc(N3CCN4C(=O)N(c5ccccc5)CC4C3)c12 (centres undefined) | > 1000 | –
7 | Cc1c[nH]c2ncnc(N3CC[C@H](C(=O)Nc4cccc(OC(=O)N(C)C)c4)[C@H](C)C3)c12 (relative stereo) | 110 | –
8 | Cc1c[nH]c2ncnc(N3CCC(C)(C(=O)Nc4cccc(C(C)(C)C)c4)CC3)c12 | 3.2 | –
9 | C=CCC1(C(=O)Nc2cccc(Cl)c2)CCN(c2ncnc3[nH]cc(C)c23)CC1 | 1.9 | –
10 | COCCOCC1(C(=O)Nc2cccc(OC(=O)N(C)C)c2)CCN(c2ncnc3[nH]cc(C)c23)CC1 | 2.7 | IC50 [3]: > 2800 nM; Activity [4]: -1.8 mmHg
11 | Cc1c[nH]c2ncnc(N3CCC(C(=O)Nc4cccc(OC(C)C)c4)CC3)c12 | 330 | –
12 | Cc1c[nH]c2ncnc(N3CCC(CN)(C(=O)Nc4cccc(OC(=O)N(C)C)c4)CC3)c12 [LX-7101] | 4.3 | Kd [5]: < 1000 nM; Kd [6]: < 1000 nM; remaining at 336 h [7]: 99%; IC50 [8]: 32 nM; IC50 [9]: 340 nM; IC50 [10]: 2200 nM; IC50 [3]: 69 nM; IC50 [11]: 7.5 nM; Activity [4]: -4.2 mmHg; Cmax [12]: 12 nM
13 | Cc1c[nH]c2ncnc(N3CCC(C)(C(=O)Nc4cccc(OC(=O)N(C)C)c4)CC3)c12 | 4.8 | –
14 | Cc1c[nH]c2ncnc(N3CCN(C(=O)N[C@@H](C)c4ccccc4)[C@@H](C)C3)c12 | 9.9 | –
15 | Cc1c[nH]c2ncnc(N3CCC(Cc4c[nH]cn4)(C(=O)Nc4cccc(OC(=O)N(C)C)c4)CC3)c12 | 1 | IC50 [3]: 514 nM; Activity [4]: -3.5 mmHg
16 | Cc1c[nH]c2ncnc(N3CCN(C(=O)Nc4cccc(OC(=O)N(C)C)c4)C(C(C)(C)C)C3)c12 (centres undefined) | 26 | –
17 | Cc1c[nH]c2ncnc(N3CCC(CCN(C)C)(C(=O)Nc4cccc(OC(=O)N(C)C)c4)CC3)c12 | 7.3 | IC50 [13]: 134 nM; IC50 [3]: 139 nM; Activity [4]: -3.4 mmHg
18 | C=CCC1(C(=O)Nc2cccc(OC(=O)N(C)C)c2)CCN(c2ncnc3[nH]cc(C)c23)CC1 | 2.2 | –
19 | COc1cccc(NC(=O)N2CCN(c3ncnc4[nH]cc(C)c34)C[C@@H]2C)c1 | 2.7 | –
20 | Cc1c[nH]c2ncnc(N3CCN(C(=O)N[C@H](C)c4ccccc4)[C@@H](C)C3)c12 | 180 | –
